Measured values as given in PubChem BioAssay (NCI).
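The compound was tested at five concentrations on cells cultured in 96-well plates, with a 48-hour exposure period. Abbreviation: GI50, concentration required for 50% inhibition of growth. TGI marks complete inhibition of growth.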

Assays:
Assay in all cases: NCI-60 cell line screen, 48 h
SK-MEL-2 melanoma = tested on: SK-MEL-2 melanoma
SK-MEL-28 melanoma = tested on: SK-MEL-28 melanoma
ACHN renal = tested on: ACHN renal
OVCAR-3 ovarian = tested on: OVCAR-3 ovarian
UO-31 renal = tested on: UO-31 renal
786-0 renal = tested on: 786-0 renal
IGROV1 ovarian = tested on: IGROV1 ovarian
PC-3 prostate = tested on: PC-3 prostate
SW-620 colon = tested on: SW-620 colon
NCI-H522 lung = tested on: NCI-H522 lung
HOP-92 NSCLC = tested on: HOP-92 NSCLC
LOX IMVI melanoma = tested on: LOX IMVI melanoma
MCF7 breast = tested on: MCF7 breast
MOLT-4 leukemia = tested on: MOLT-4 leukemia
HCC-2998 colon = tested on: HCC-2998 colon
SN12C renal = tested on: SN12C renal
TK-10 renal = tested on: TK-10 renal
U251 CNS = tested on: U251 CNS
CAKI-1 renal = tested on: CAKI-1 renal
OVCAR-8 ovarian = tested on: OVCAR-8 ovarian
HT29 colon = tested on: HT29 colon
SR leukemia = tested on: SR leukemia
OVCAR-4 ovarian = tested on: OVCAR-4 ovarian
HL-60(TB) leukemia = tested on: HL-60(TB) leukemia
NCI-H23 lung = tested on: NCI-H23 lung
MDA-MB-435 = tested on: MDA-MB-435
COLO 205 colon = tested on: COLO 205 colon
T-47D breast = tested on: T-47D breast
RPMI-8226 leukemia = tested on: RPMI-8226 leukemia
SF-539 CNS = tested on: SF-539 CNS
MALME-3M melanoma = tested on: MALME-3M melanoma
KM12 colon = tested on: KM12 colon
EKVX NSCLC = tested on: EKVX NSCLC
SF-268 CNS = tested on: SF-268 CNS
HCT-15 colon = tested on: HCT-15 colon
SK-OV-3 ovarian = tested on: SK-OV-3 ovarian
UACC-62 melanoma = tested on: UACC-62 melanoma
SF-295 CNS = tested on: SF-295 CNS
M14 melanoma = tested on: M14 melanoma
OVCAR-5 ovarian = tested on: OVCAR-5 ovarian
K-562 leukemia = tested on: K-562 leukemia
A498 renal = tested on: A498 renal
CCRF-CEM leukemia = tested on: CCRF-CEM leukemia
MDA-MB-231 breast = tested on: MDA-MB-231 breast
SK-MEL-5 melanoma = tested on: SK-MEL-5 melanoma
SNB-75 CNS = tested on: SNB-75 CNS
SNB-19 CNS = tested on: SNB-19 CNS
NCI/ADR-RES ovarian = tested on: NCI/ADR-RES ovarian
NCI-H460 lung = tested on: NCI-H460 lung
HCT-116 colon = tested on: HCT-116 colon
DU-145 prostate = tested on: DU-145 prostate
NCI-H226 lung = tested on: NCI-H226 lung
BT-549 breast = tested on: BT-549 breast
UACC-257 melanoma = tested on: UACC-257 melanoma
RXF 393 renal = tested on: RXF 393 renal
A549 NSCLC = tested on: A549 NSCLC
HOP-62 NSCLC = tested on: HOP-62 NSCLC
HS 578T breast = tested on: HS 578T breast

Nc1cc2ccncc2c2ccccc12
GI50 (SK-MEL-2 melanoma): 13.6 µM | TGI (SK-MEL-2 melanoma): 30 µM | GI50 (SK-MEL-28 melanoma): 16.6 µM | TGI (SK-MEL-28 melanoma): 33.6 µM | GI50 (ACHN renal): 4.44 µM | TGI (ACHN renal): 58.5 µM | GI50 (OVCAR-3 ovarian): 18.8 µM | TGI (OVCAR-3 ovarian): 76.5 µM | GI50 (UO-31 renal): 4.1 µM | TGI (UO-31 renal): 45.6 µM | GI50 (786-0 renal): 23.3 µM | TGI (786-0 renal): > 100 µM | GI50 (IGROV1 ovarian): 11.9 µM | TGI (IGROV1 ovarian): > 100 µM | GI50 (PC-3 prostate): 16.2 µM | TGI (PC-3 prostate): > 100 µM | GI50 (SW-620 colon): 5.19 µM | TGI (SW-620 colon): 89 µM | GI50 (NCI-H522 lung): 5.49 µM | TGI (NCI-H522 lung): 26.6 µM | GI50 (HOP-92 NSCLC): 19.6 µM | TGI (HOP-92 NSCLC): 68.9 µM | GI50 (LOX IMVI melanoma): 8.68 µM | TGI (LOX IMVI melanoma): > 100 µM | GI50 (MCF7 breast): 19.1 µM | TGI (MCF7 breast): > 100 µM | GI50 (MOLT-4 leukemia): 5.35 µM | TGI (MOLT-4 leukemia): > 100 µM | GI50 (HCC-2998 colon): 14.2 µM | TGI (HCC-2998 colon): 40.4 µM | GI50 (SN12C renal): 11.4 µM | TGI (SN12C renal): > 100 µM | GI50 (TK-10 renal): 20.2 µM | TGI (TK-10 renal): 91.1 µM | GI50 (U251 CNS): 21 µM | TGI (U251 CNS): > 100 µM | GI50 (CAKI-1 renal): 18.4 µM | TGI (CAKI-1 renal): > 100 µM | GI50 (OVCAR-8 ovarian): 5.25 µM | TGI (OVCAR-8 ovarian): > 100 µM | GI50 (HT29 colon): 13.2 µM | TGI (HT29 colon): 43 µM | GI50 (SR leukemia): 8.56 µM | TGI (SR leukemia): 47.9 µM | GI50 (OVCAR-4 ovarian): 20.2 µM | TGI (OVCAR-4 ovarian): > 100 µM | GI50 (HL-60(TB) leukemia): 20 µM | TGI (HL-60(TB) leukemia): 61.9 µM | GI50 (NCI-H23 lung): 16.7 µM | TGI (NCI-H23 lung): 80.1 µM | GI50 (MDA-MB-435): 17.2 µM | TGI (MDA-MB-435): 60 µM | GI50 (COLO 205 colon): 6.89 µM | TGI (COLO 205 colon): 20.8 µM | GI50 (T-47D breast): 22.3 µM | TGI (T-47D breast): > 100 µM | GI50 (RPMI-8226 leukemia): 11.6 µM | TGI (RPMI-8226 leukemia): 63.5 µM | GI50 (SF-539 CNS): 13.4 µM | TGI (SF-539 CNS): 34 µM | GI50 (MALME-3M melanoma): 15.7 µM | TGI (MALME-3M melanoma): 31.4 µM | GI50 (KM12 colon): 11.6 µM | TGI (KM12 colon): > 100 µM | GI50 (EKVX NSCLC): 19.3 µM | TGI (EKVX NSCLC): > 100 µM | GI50 (SF-268 CNS): 11.1 µM | TGI (SF-268 CNS): 52.5 µM | GI50 (HCT-15 colon): 11.8 µM | TGI (HCT-15 colon): > 100 µM | GI50 (SK-OV-3 ovarian): 13.6 µM | TGI (SK-OV-3 ovarian): 87.4 µM | GI50 (UACC-62 melanoma): 13.5 µM | TGI (UACC-62 melanoma): 38.7 µM | GI50 (SF-295 CNS): 10.8 µM | TGI (SF-295 CNS): 57.4 µM | GI50 (M14 melanoma): 14.5 µM | TGI (M14 melanoma): 32.1 µM | GI50 (OVCAR-5 ovarian): 18.7 µM | TGI (OVCAR-5 ovarian): 88.1 µM | GI50 (K-562 leukemia): 13.5 µM | TGI (K-562 leukemia): 73 µM | GI50 (A498 renal): 1.84 µM | TGI (A498 renal): 13.7 µM | GI50 (CCRF-CEM leukemia): 12.6 µM | TGI (CCRF-CEM leukemia): 99.1 µM | GI50 (MDA-MB-231 breast): 16.4 µM | TGI (MDA-MB-231 breast): 96.1 µM | GI50 (SK-MEL-5 melanoma): 15.3 µM | TGI (SK-MEL-5 melanoma): 31.2 µM | GI50 (SNB-75 CNS): 16.1 µM | TGI (SNB-75 CNS): 35.2 µM | GI50 (SNB-19 CNS): 19.5 µM | TGI (SNB-19 CNS): > 100 µM | GI50 (NCI/ADR-RES ovarian): 8.7 µM | TGI (NCI/ADR-RES ovarian): > 100 µM | GI50 (NCI-H460 lung): 8.78 µM | TGI (NCI-H460 lung): 70.6 µM | GI50 (HCT-116 colon): 4.85 µM | TGI (HCT-116 colon): > 100 µM | GI50 (DU-145 prostate): 13.2 µM | TGI (DU-145 prostate): > 100 µM | GI50 (NCI-H226 lung): 5.75 µM | TGI (NCI-H226 lung): 73.6 µM | GI50 (BT-549 breast): 23.9 µM | TGI (BT-549 breast): > 100 µM | GI50 (UACC-257 melanoma): 13.6 µM | TGI (UACC-257 melanoma): 29.7 µM | GI50 (RXF 393 renal): 10.8 µM | TGI (RXF 393 renal): 29 µM | GI50 (A549 NSCLC): 18.9 µM | TGI (A549 NSCLC): > 100 µM | GI50 (HOP-62 NSCLC): 13.7 µM | TGI (HOP-62 NSCLC): > 100 µM | GI50 (HS 578T breast): 13.9 µM | TGI (HS 578T breast): 40.4 µM
